Results from PubChem BioAssay (NCI).
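Grown in 96-well plates, cells were treated for 48 hours with each compound at five concentrations. Insufficient inhibition: endpoint recorded as highest concentration tested. Here, GI50 denotes the concentration required for 50% inhibition of growth. At the TGI there is no net growth.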

What was measured:
Experiment in all cases: growth of human tumour cells (NCI), 48 h
786-0 renal = tested on: 786-0 renal
A498 renal = tested on: A498 renal
A549 NSCLC = tested on: A549 NSCLC
ACHN renal = tested on: ACHN renal
BT-549 breast = tested on: BT-549 breast
CAKI-1 renal = tested on: CAKI-1 renal
CCRF-CEM leukemia = tested on: CCRF-CEM leukemia
COLO 205 colon = tested on: COLO 205 colon
DU-145 prostate = tested on: DU-145 prostate
EKVX NSCLC = tested on: EKVX NSCLC
HCC-2998 colon = tested on: HCC-2998 colon
HCT-116 colon = tested on: HCT-116 colon
HCT-15 colon = tested on: HCT-15 colon
HL-60(TB) leukemia = tested on: HL-60(TB) leukemia
HOP-62 NSCLC = tested on: HOP-62 NSCLC
HOP-92 NSCLC = tested on: HOP-92 NSCLC
HS 578T breast = tested on: HS 578T breast
HT29 colon = tested on: HT29 colon
IGROV1 ovarian = tested on: IGROV1 ovarian
K-562 leukemia = tested on: K-562 leukemia
KM12 colon = tested on: KM12 colon
LOX IMVI melanoma = tested on: LOX IMVI melanoma
M14 melanoma = tested on: M14 melanoma
MALME-3M melanoma = tested on: MALME-3M melanoma
MCF7 breast = tested on: MCF7 breast
MDA-MB-231 breast = tested on: MDA-MB-231 breast
MDA-MB-435 = tested on: MDA-MB-435
MOLT-4 leukemia = tested on: MOLT-4 leukemia
NCI-H226 lung = tested on: NCI-H226 lung
NCI-H23 lung = tested on: NCI-H23 lung
NCI-H460 lung = tested on: NCI-H460 lung
NCI-H522 lung = tested on: NCI-H522 lung
NCI/ADR-RES ovarian = tested on: NCI/ADR-RES ovarian
OVCAR-3 ovarian = tested on: OVCAR-3 ovarian
OVCAR-4 ovarian = tested on: OVCAR-4 ovarian
OVCAR-5 ovarian = tested on: OVCAR-5 ovarian
OVCAR-8 ovarian = tested on: OVCAR-8 ovarian
PC-3 prostate = tested on: PC-3 prostate
RPMI-8226 leukemia = tested on: RPMI-8226 leukemia
RXF 393 renal = tested on: RXF 393 renal
SF-268 CNS = tested on: SF-268 CNS
SF-295 CNS = tested on: SF-295 CNS
SF-539 CNS = tested on: SF-539 CNS
SK-MEL-2 melanoma = tested on: SK-MEL-2 melanoma
SK-MEL-28 melanoma = tested on: SK-MEL-28 melanoma
SK-MEL-5 melanoma = tested on: SK-MEL-5 melanoma
SK-OV-3 ovarian = tested on: SK-OV-3 ovarian
SN12C renal = tested on: SN12C renal
SNB-19 CNS = tested on: SNB-19 CNS
SNB-75 CNS = tested on: SNB-75 CNS
SR leukemia = tested on: SR leukemia
SW-620 colon = tested on: SW-620 colon
T-47D breast = tested on: T-47D breast
TK-10 renal = tested on: TK-10 renal
U251 CNS = tested on: U251 CNS
UACC-257 melanoma = tested on: UACC-257 melanoma
UACC-62 melanoma = tested on: UACC-62 melanoma
UO-31 renal = tested on: UO-31 renal

CCCCCCCC(=O)SCC/C=C/[C@@H]1CC(=O)NCc2cccc(n2)CN(Cc2ccc3ccccc3c2)CC(=O)N[C@@H](C(C)C)C(=O)O1
GI50 (786-0 renal): > 100 µM | TGI (786-0 renal): > 100 µM | GI50 (A498 renal): 29.5 µM | TGI (A498 renal): 88.3 µM | GI50 (A549 NSCLC): > 100 µM | TGI (A549 NSCLC): > 100 µM | GI50 (ACHN renal): 45.3 µM | TGI (ACHN renal): > 100 µM | GI50 (BT-549 breast): > 100 µM | TGI (BT-549 breast): > 100 µM | GI50 (CAKI-1 renal): > 100 µM | TGI (CAKI-1 renal): > 100 µM | GI50 (CCRF-CEM leukemia): 37.9 µM | TGI (CCRF-CEM leukemia): > 100 µM | GI50 (COLO 205 colon): 61.6 µM | TGI (COLO 205 colon): > 100 µM | GI50 (DU-145 prostate): 94.1 µM | TGI (DU-145 prostate): > 100 µM | GI50 (EKVX NSCLC): > 100 µM | TGI (EKVX NSCLC): > 100 µM | GI50 (HCC-2998 colon): > 100 µM | TGI (HCC-2998 colon): > 100 µM | GI50 (HCT-116 colon): 26.5 µM | TGI (HCT-116 colon): > 100 µM | GI50 (HCT-15 colon): 89.3 µM | TGI (HCT-15 colon): > 100 µM | GI50 (HL-60(TB) leukemia): 48 µM | TGI (HL-60(TB) leukemia): > 100 µM | GI50 (HOP-62 NSCLC): 39.2 µM | TGI (HOP-62 NSCLC): > 100 µM | GI50 (HOP-92 NSCLC): 56.2 µM | TGI (HOP-92 NSCLC): > 100 µM | GI50 (HS 578T breast): 46 µM | TGI (HS 578T breast): > 100 µM | GI50 (HT29 colon): 32.2 µM | TGI (HT29 colon): > 100 µM | GI50 (IGROV1 ovarian): 44.4 µM | TGI (IGROV1 ovarian): > 100 µM | GI50 (K-562 leukemia): 59.4 µM | TGI (K-562 leukemia): > 100 µM | GI50 (KM12 colon): 42.3 µM | TGI (KM12 colon): > 100 µM | GI50 (LOX IMVI melanoma): 35.1 µM | TGI (LOX IMVI melanoma): > 100 µM | GI50 (M14 melanoma): 44.3 µM | TGI (M14 melanoma): > 100 µM | GI50 (MALME-3M melanoma): 23.8 µM | TGI (MALME-3M melanoma): > 100 µM | GI50 (MCF7 breast): 40 µM | TGI (MCF7 breast): > 100 µM | GI50 (MDA-MB-231 breast): 41.4 µM | TGI (MDA-MB-231 breast): > 100 µM | GI50 (MDA-MB-435): 39.7 µM | TGI (MDA-MB-435): > 100 µM | GI50 (MOLT-4 leukemia): 30.9 µM | TGI (MOLT-4 leukemia): > 100 µM | GI50 (NCI-H226 lung): > 100 µM | TGI (NCI-H226 lung): > 100 µM | GI50 (NCI-H23 lung): > 100 µM | TGI (NCI-H23 lung): > 100 µM | GI50 (NCI-H460 lung): 43.9 µM | TGI (NCI-H460 lung): > 100 µM | GI50 (NCI-H522 lung): 84.3 µM | TGI (NCI-H522 lung): > 100 µM | GI50 (NCI/ADR-RES ovarian): 46.4 µM | TGI (NCI/ADR-RES ovarian): > 100 µM | GI50 (OVCAR-3 ovarian): 74.3 µM | TGI (OVCAR-3 ovarian): > 100 µM | GI50 (OVCAR-4 ovarian): > 100 µM | TGI (OVCAR-4 ovarian): > 100 µM | GI50 (OVCAR-5 ovarian): > 100 µM | TGI (OVCAR-5 ovarian): > 100 µM | GI50 (OVCAR-8 ovarian): 87 µM | TGI (OVCAR-8 ovarian): > 100 µM | GI50 (PC-3 prostate): 62.4 µM | TGI (PC-3 prostate): > 100 µM | GI50 (RPMI-8226 leukemia): > 100 µM | TGI (RPMI-8226 leukemia): > 100 µM | GI50 (RXF 393 renal): 42.2 µM | TGI (RXF 393 renal): > 100 µM | GI50 (SF-268 CNS): 93.8 µM | TGI (SF-268 CNS): > 100 µM | GI50 (SF-295 CNS): 41.4 µM | TGI (SF-295 CNS): > 100 µM | GI50 (SF-539 CNS): > 100 µM | TGI (SF-539 CNS): > 100 µM | GI50 (SK-MEL-2 melanoma): 92.4 µM | TGI (SK-MEL-2 melanoma): > 100 µM | GI50 (SK-MEL-28 melanoma): 47 µM | TGI (SK-MEL-28 melanoma): > 100 µM | GI50 (SK-MEL-5 melanoma): 36.2 µM | TGI (SK-MEL-5 melanoma): > 100 µM | GI50 (SK-OV-3 ovarian): 40 µM | TGI (SK-OV-3 ovarian): > 100 µM | GI50 (SN12C renal): > 100 µM | TGI (SN12C renal): > 100 µM | GI50 (SNB-19 CNS): > 100 µM | TGI (SNB-19 CNS): > 100 µM | GI50 (SNB-75 CNS): 27.9 µM | TGI (SNB-75 CNS): > 100 µM | GI50 (SR leukemia): 22.9 µM | TGI (SR leukemia): > 100 µM | GI50 (SW-620 colon): > 100 µM | TGI (SW-620 colon): > 100 µM | GI50 (T-47D breast): > 100 µM | TGI (T-47D breast): > 100 µM | GI50 (TK-10 renal): 18.2 µM | TGI (TK-10 renal): > 100 µM | GI50 (U251 CNS): 98.2 µM | TGI (U251 CNS): > 100 µM | GI50 (UACC-257 melanoma): 88.9 µM | TGI (UACC-257 melanoma): > 100 µM | GI50 (UACC-62 melanoma): 51.6 µM | TGI (UACC-62 melanoma): > 100 µM | GI50 (UO-31 renal): 50 µM | TGI (UO-31 renal): > 100 µM
